Patent US10561703B2, “Method of modulating sex hormone levels using a sex hormone secretion modulator” (GEMVAX & KAEL CO., LTD., priority 2013, dated 2020)

Experiments:
[1] = test system: RWPE-1; test: Cell proliferation (CCK-8) in prostate epithelial cell line; type: cell-based
Description: When testosterone is injected into the body, testosterone becomes dihydrotestosterone (DHT) due to 5α-reductase, which stimulates the proliferation of prostate cells and induces benign prostatatic hyperplasia (BPH). Based on these facts, a PEP-1 (GV1001) injection experiment was performed for the inhibition of proliferation of prostatic cells in the following manner: The cell lines were mesenchymal cell lines (WPMY-1) and epithelial cell lines (RWPE-1) of prostates obtained from BPH animal models. […] Observation of changes in the proliferation was performed by suctioning a culture medium, adding 10 μL of CCK-8 solution to each well, and measuring an optical density at 450 nm for 1 hour to about 4 hours.

[2] = test system: GnRH mRNA; test: Relative GnRH mRNA expression in serum, real-time qPCR; type: in vivo, Sprague-Dawley (SD) rats; conditions: 100 mg/kg sc, 4 hr post-administration, Day 1
Description: Sprague-Dawley (SD) rats were obtained from Orient Bio (Gyronggi-do, South Korea), and seven-week-old rats were used for the study. Rat were administered by subcutaneous (sc) injection of PEP-1 (100 mg/kg) twice (at Day 1 and at Day 7) during the seven day study period. Blood samples (1.4 mL) were collected at Day 0 (before the administration of PEP-1), at Day 1 (4 hr and 8 hr post injection), and at Day 7 (4 hr post injection). Serum samples obtained from the blood were used for the experiment. Serum samples prepared from the blood collected at Day 1 (4 hr post injection) were used for the experiment. The animal care and procedures were approved and in accordance with the Korea Animal Medical Science Institute (KAMSI) IACUC.
RNA isolation and cDNA synthesis from the serum samples. The external control, miRNeasy Serum/Plasma Spike-In Control was added in each serum sample prior to the RNA extraction. […]
Real-time qPCR was performed using the RT2 SYBR Green qPCR Mastermix kit (Qiagen) with a CFX96 Real-Time System (Bio-Rad, Hercules, Calif., USA). Data was analyzed by CFX Manager™ Software V3.0 using the ΔΔCt method.
Rat serum samples obtained from the blood collected at 4 hr post-administration of PEP-1 (100 mg/kg) on the 1st day of the experiment were analyzed for the mRNA expression of gonadotropin-releasing hormone (GnRH). […]

“EARPALLTSRLRFIPK (listed as Homo sapiens) [PEP-1, hormone secretion modulator / GnRH analog]” was tested, and the “Cell proliferation (optical density at 450 nm) versus untreated cells” value ([1]; RWPE-1, 100 and 200 μM GV1001, no DHT) was “did not show a substantial difference in optical densities”, the “Inhibition of DHT-induced cell proliferation” value ([1]; RWPE-1, 100 and 200 μM GV1001 with 25 nM DHT) was “substantial inhibition effects on proliferation” and the “Relative GnRH mRNA expression in serum” value ([2]; female rats) was “increased the relative GnRH mRNA expression”. The “Relative GnRH mRNA expression in serum” value ([2]; male rats) was “increased the relative GnRH mRNA expression”.
